Laboratory results taken from ChEMBL document CHEMBL3400125, “Discovery of novel 2-(alkylmorpholin-4-yl)-6-(3-fluoropyridin-4-yl)-pyrimidin-4(3H)-ones as orally-active GSK-3β inhibitors for Alzheimer's disease” (Bioorg Med Chem Lett, 2015).

Legend:
[1] = biological target: Glycogen synthase kinase-3 beta (Homo sapiens, UniProt P49841); experiment: Inhibition of human recombinant GSK3beta assessed as inhibition of [gamma32P]ATP after 1 hr by liquid scintillation counting in presence of prephosphorylated GS1 peptide
Cytochrome P450 1A2 = biological target: T1, Cytochrome P450 1A2 (Homo sapiens, UniProt P05177); experiment: Inhibition of recombinant human CYP1A2; type: ADME
T1 sequence (P05177 whole entry): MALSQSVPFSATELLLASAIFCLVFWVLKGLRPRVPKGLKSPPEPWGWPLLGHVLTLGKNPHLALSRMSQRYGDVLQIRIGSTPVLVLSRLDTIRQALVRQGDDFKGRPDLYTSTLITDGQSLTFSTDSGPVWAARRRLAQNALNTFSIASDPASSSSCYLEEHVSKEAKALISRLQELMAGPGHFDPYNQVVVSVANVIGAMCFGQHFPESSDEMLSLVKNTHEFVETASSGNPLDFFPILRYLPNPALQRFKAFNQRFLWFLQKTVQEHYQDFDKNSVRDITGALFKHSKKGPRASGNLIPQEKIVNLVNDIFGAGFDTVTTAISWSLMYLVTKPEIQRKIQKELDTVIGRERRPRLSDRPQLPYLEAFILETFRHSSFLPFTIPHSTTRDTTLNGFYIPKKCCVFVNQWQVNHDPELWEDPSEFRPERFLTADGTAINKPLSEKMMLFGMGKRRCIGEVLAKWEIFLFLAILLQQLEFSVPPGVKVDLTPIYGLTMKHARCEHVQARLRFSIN

Cytochrome P450 2D6 = Cytochrome P450 2D6 (Homo sapiens, UniProt P10635); experiment: Inhibition of recombinant human CYP2D6; type: ADME
Cytochrome P450 3A4 = Cytochrome P450 3A4 (Homo sapiens, UniProt P08684); experiment: Inhibition of recombinant human CYP3A4; type: ADME
[2] = Intrinsic clearance in human liver microsomes; type: ADME
[3] = Permeability across human Caco2 cells; type: ADME, cell-based; settings: Caco-2, read-out: permeability
Mus musculus = experiment: Inhibition of GSK3beta-mediated tau phosphorylation at Ser396 residue in po dosed CD-1 mouse measured 1 hr post dose; type: functional; settings: CD-1, po

Cytochrome P450 3A4, sequence (P08684 whole entry): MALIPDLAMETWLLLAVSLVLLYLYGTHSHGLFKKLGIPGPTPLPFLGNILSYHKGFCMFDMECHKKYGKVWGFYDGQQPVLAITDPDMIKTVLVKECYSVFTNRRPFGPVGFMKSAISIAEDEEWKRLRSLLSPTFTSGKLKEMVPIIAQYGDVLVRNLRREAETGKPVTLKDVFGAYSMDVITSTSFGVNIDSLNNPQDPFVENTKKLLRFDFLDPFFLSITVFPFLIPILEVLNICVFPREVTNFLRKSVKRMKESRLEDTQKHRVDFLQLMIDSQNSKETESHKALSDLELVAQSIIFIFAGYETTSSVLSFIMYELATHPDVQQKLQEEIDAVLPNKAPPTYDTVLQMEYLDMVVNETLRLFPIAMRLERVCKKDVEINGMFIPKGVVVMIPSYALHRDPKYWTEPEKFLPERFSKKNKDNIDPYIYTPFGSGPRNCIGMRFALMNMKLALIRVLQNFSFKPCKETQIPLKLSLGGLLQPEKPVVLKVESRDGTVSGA
Glycogen synthase kinase-3 beta, sequence (P49841 whole entry): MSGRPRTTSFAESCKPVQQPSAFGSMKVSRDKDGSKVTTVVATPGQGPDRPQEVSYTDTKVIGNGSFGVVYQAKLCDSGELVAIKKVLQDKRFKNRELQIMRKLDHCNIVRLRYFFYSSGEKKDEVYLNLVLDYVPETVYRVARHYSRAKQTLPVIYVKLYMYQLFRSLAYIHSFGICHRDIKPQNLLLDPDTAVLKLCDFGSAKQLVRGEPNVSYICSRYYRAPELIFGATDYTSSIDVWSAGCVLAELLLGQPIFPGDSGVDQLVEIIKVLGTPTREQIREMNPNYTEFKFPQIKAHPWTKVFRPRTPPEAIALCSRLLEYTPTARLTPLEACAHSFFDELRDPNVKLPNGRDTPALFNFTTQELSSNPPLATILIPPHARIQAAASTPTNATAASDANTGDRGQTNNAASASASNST
Cytochrome P450 2D6, sequence (P10635 whole entry): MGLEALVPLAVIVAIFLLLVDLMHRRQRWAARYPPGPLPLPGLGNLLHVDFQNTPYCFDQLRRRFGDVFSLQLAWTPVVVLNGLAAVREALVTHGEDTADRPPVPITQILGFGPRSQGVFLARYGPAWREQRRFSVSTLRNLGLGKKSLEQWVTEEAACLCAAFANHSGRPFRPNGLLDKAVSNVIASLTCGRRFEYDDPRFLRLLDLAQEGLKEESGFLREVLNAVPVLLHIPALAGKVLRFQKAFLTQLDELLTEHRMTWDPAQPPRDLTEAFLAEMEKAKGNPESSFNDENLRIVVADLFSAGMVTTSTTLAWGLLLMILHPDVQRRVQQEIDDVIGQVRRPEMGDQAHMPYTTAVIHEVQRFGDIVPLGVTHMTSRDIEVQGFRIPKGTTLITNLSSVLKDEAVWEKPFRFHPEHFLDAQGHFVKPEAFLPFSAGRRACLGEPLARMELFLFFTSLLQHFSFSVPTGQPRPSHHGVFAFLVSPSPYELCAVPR

| IC50 [1] [nM] | IC50 (Cytochrome P450 1A2) [nM] | IC50 (Cytochrome P450 2D6) [nM] | IC50 (Cytochrome P450 3A4) [nM] | CLint scaled [2] [µL/min/mg] | Papp [3] [×10⁻⁶ cm/s] | Compound | ED50 (Mus musculus) [mg/kg] |
| --- | --- | --- | --- | --- | --- | --- | --- |
| 453 | – | – | – | – | – | C[C@@H]1CN(c2nc(-c3ccncc3F)cc(=O)n2C)[C@H](C)CO1 | – |
| 12 | 7500 | 2300 | > 50000 | 210 | – | CCCCC1CN(c2nc(-c3ccncc3F)cc(=O)n2C)CCO1 (racemic) | – |
| 4.9 | 16000 | > 50000 | > 50000 | – | 48.5 | C[C@@H]1[C@@H](C)OCCN1c1nc(-c2ccncc2F)cc(=O)n1C | – |
| 14 | – | – | – | – | – | CC(C)[C@@H]1COCCN1c1nc(-c2ccncc2F)cc(=O)n1C | – |
| 3.7 | 14000 | > 50000 | > 50000 | 200 | 41.8 | Cn1c(N2CCO[C@@H]3CCCC[C@H]32)nc(-c2ccncc2F)cc1=O | – |
| 19 | – | – | – | – | – | CC[C@@H]1COCCN1c1nc(-c2ccncc2F)cc(=O)n1C | – |
| 12 | 1500 | 37700 | > 50000 | 200 | – | Cn1c(N2CCOC(C3CCC3)C2)nc(-c2ccncc2F)cc1=O (racemic) | – |
| 32 | – | – | – | – | – | C[C@@H]1OCCN(c2nc(-c3ccncc3F)cc(=O)n2C)[C@@H]1C (stereo in doubt; 14) | – |
| 23 | 5700 | > 50000 | > 50000 | 20 | – | C[C@H]1COCCN1c1nc(-c2ccncc2F)cc(=O)n1C | – |
| 67 | – | – | – | – | – | Cn1c(N2CCOCC2)nc(-c2ccncc2F)cc1=O | – |
| 30 | – | – | – | – | – | CC[C@H]1COCCN1c1nc(-c2ccncc2F)cc(=O)n1C | – |
| 4.2 | 21000 | > 50000 | > 50000 | 40 | 44.5 | Cn1c(N2CCO[C@@H]3CCC[C@H]32)nc(-c2ccncc2F)cc1=O | – |
| 41 | – | – | – | – | – | C[C@@H]1CO[C@@H](C)CN1c1nc(-c2ccncc2F)cc(=O)n1C | – |
| 16 | – | – | – | – | – | C[C@@H]1OCCN(c2nc(-c3ccncc3F)cc(=O)n2C)[C@@H]1C (stereo in doubt; 13) | – |
| 3.1 | > 50000 | > 50000 | > 50000 | 20 | 54.5 | Cn1c(N2CCO[C@@H]3COC[C@H]32)nc(-c2ccncc2F)cc1=O | – |
| – | – | – | > 50000 | 60 | – | Cn1c(N2CCO[C@@H](c3ccc(F)cc3)C2)nc(-c2ccncn2)cc1=O | – |
| 35 | – | – | – | – | – | Cn1c(N2CCO[C@H]3CCC[C@@H]32)nc(-c2ccncc2F)cc1=O | – |
| 17 | 3300 | > 50000 | > 50000 | 70 | – | CC(C)C1CN(c2nc(-c3ccncc3F)cc(=O)n2C)CCO1 (racemic) | – |
| 19 | – | – | – | – | – | C[C@@H]1OCCN(c2nc(-c3ccncc3F)cc(=O)n2C)[C@H]1C | – |
| 7 | 18700 | > 50000 | > 50000 | 30 | 54.6 | C[C@@H]1COCCN1c1nc(-c2ccncc2F)cc(=O)n1C | 6.8 |
| 9.7 | – | – | – | – | – | CC1N(c2nc(-c3ccncc3F)cc(=O)n2C)CCOC1(C)C (racemic) | – |
